Assay results: US12703885B2, “Method for predicting the response to CDK4/6 inhibitor therapy in cancer patients” (GBG FORSCHUNGS GMBH, priority 2021, dated 2026)

System: HR+, HER2− eBC at high risk of recurrence
Test: PENELOPE-B randomized, double-blind, placebo-controlled Phase 3 study; Cox regression for endpoint iDFS
Format: in vivo, human
Description: The data underlying the present invention were obtained in the context of the PENELOPE^B study (NCT01864746). PENELOPE^B is a randomized, double-blind, placebo-controlled Phase 3 study comparing one year of palbociclib plus at least five years of standard adjuvant endocrine therapy to placebo plus at least five years of standard adjuvant endocrine therapy in 1,250 women with HR+, HER2− eBC at high risk of recurrence who have residual invasive disease after completing neoadjuvant chemotherapy. Patients in the trial scored 3 or higher (or 2 if there were lymph node metastases at the time of surgery) on the clinical-pathologic stage—estrogen/grade (CPS-EG). The CPS-EG is a validated risk assessment tool combining: clinical stage before neoadjuvant treatment, pathological stage after neoadjuvant treatment, grading and estrogen-receptor status. More than 190 clinical sites in 12 countries around the globe participated in PENELOPE-B. The study opened in November 2013 and closed recruitment on Dec. 31, 2017. RNA was extracted from post-surgical residual tumor tissue of patients from the Penelope^B study (GBG 78) and quantified using the HTG EdgeSeq Oncology Biomarker Panel (HTG Molecular Diagnostics Inc.) resulting in a so-called count value for each of the 2559 genes in the assay. Quality control measures were performed as described by the manufacturer. For 906 patients HTG measurements were successfully performed and passed said quality controls. […] Each regression model was calculated based on 906 patients from the Penelope^B study. […] The 20 genes with smallest p-values for the interaction were selected. • 2) For each gene from step 1) the technical eligibility for measurement was evaluated. […] In the cohort of 782 patients the gene expression value was adjusted to the lower limit for between 0 and 16 patients, and to the upper limit for between 0 and 8 patients. • 4) The correlation between genes was analyzed by hierarchical clustering and analysis of the Pearson correlation coefficient matrix based on graphical methods. […]

CC(=O)c1c(C)c2cnc(Nc3ccc(N4CCNCC4)cn3)nc2n(C2CCCC2)c1=O [palbociclib]
HR for iDFS, palbociclib vs. placebo (95% CI) (overall population, n=906, plus standard adjuvant endocrine therapy, no significant difference between arms): 0.89 (0.69-1.16)
HR (95% CI), arm (palbociclib vs placebo), iDFS (subgroup score3dich high (above median of average of PIAS2, MAP2K6, DSG3, ABCC12, IFT52 expression)): 0.54 (0.37-0.79)
HR (95% CI), arm (palbociclib vs placebo), iDFS (subgroup score3dich low (below median of average of PIAS2, MAP2K6, DSG3, ABCC12, IFT52 expression)): 1.45 (1.00-2.09)
